Experiment [1] relates to Escherichia coli ATCC 8099. Put plainly: Antibacterial activity, broth microdilution MIC. Format: cell-based. The conditions noted are these: for MIC: Escherichia coli, ATCC8099, broth microdilution, 37° C., 24 hours, working range 0.25-128 μg/mL (Gram-negative); for antibacterial effect compared with tylosin against Escherichia coli 8099: in vitro, comparison in words with positive control tylosin. The procedure: (§1) Test Example 1 Determination of the antibacterial activity of the compounds of the present invention The antibacterial activity of the compounds obtained in Examples 1-4 of the present invention were determined by using the broth microdilution method with tylosin as a positive control. A broth culture medium was added into a 96-well plate, a prepared compound solution was diluted two-fold serial dilution, and then inoculated with an appropriate amount of bacterial solution. After incubation for 24 hours, the minimum inhibitory concentration of the compound was observed. The culture medium used in the experiment was CAMHB broth, CAMHB+5% defibrillated sheep blood broth. The preserved bacteria strain was inoculated into a serum-supplemented medium and cultured at 37° C. for 16-18 hours. An appropriate amount of bacteria after the completion of subculture and saline were placed into a turbidimetric tube and calibrated to the McFarland standard with a McFarland turbidimeter. The bacterial suspension was diluted 10 times with saline to prepare test bacterial solutions of certain concentrations (5×10^5 to 5×10^6 cfu/mL) for later use. Tylosin and the compounds obtained in the examples were dissolved in methanol to the desired concentration of each compound (1.0 mg/mL), stored in sterilized brown vials, stoppered, and sealed for later use. The working concentration range against Gram-negative bacteria was 0.25 μg/mL to 128 μg/mL; and the working concentration range against Gram-positive bacteria was 0.098 μg/mL to 50 μg/mL. The 96-well plate micro double dilution method was used. […] Finally, the prepared bacterial solution (of a concentration of 5×10^5 to 5×10^6 cfu/mL) was added into the first well to the eleventh well, and the twelfth well was not added with the bacterial solution to serve as a blank control. The 96-well plate was placed in a 37° C. incubator, cultured in a static state for 24 hours to observe the bacterial growth in each well. The solution in the well that inhibited bacterial growth was transparent, and the solution in the well that could not inhibit bacterial growth was turbid. The concentration in the well with a transparent solution was selected to be the minimum inhibitory concentration (MIC) of the sample.

In experiment [2] the test system is Streptococcus pneumoniae ATCC 49169. Put plainly: Antibacterial activity, broth microdilution MIC. The conditions noted are these: for MIC: Streptococcus pneumoniae, ATCC49169, broth microdilution, 37° C., 24 hours, working range 0.098-50 μg/mL (Gram-positive); for antibacterial effect compared with tylosin against Streptococcus pneumoniae ATCC 49169: in vitro, comparison in words with positive control tylosin. Format: cell-based. The procedure:
as §1

SMILES strings stand for the structures. Values after ≈ are worked out from the molar mass of the structure shown.

Consider five compounds from patent publication US20260108549A1, “MACROLIDE COMPOUND AND PREPARATION METHOD AND APPLICATION THEREOF” (INSTITUTE OF FEED RESEARCH, CHINESE ACADEMY OF AGRICULTURAL …, priority 2023, published 2026).

As for `CC[C@H]1OC(=O)C[C@@H](O)[C@H](C)[C@@H](O[C@@H]2O[C@H](C)[C@@H](O[C@H]3C[C@@](C)(O)[C@@H](O)[C@H](C)O3)[C@H](N(C)C)[C@H]2O)[C@@H](CCN(CCO)CCO)C[C@@H](C)C(=O)/C=C/C(C)=C/[C@@H]1CO[C@@H]1O[C@H](C)[C@@H](O)[C@@H](OC)[C@H]1OC` [Ib, 20-(bis(2-hydroxyethylamino)) tylosin], the MIC in experiment [1] came to 128 µg/mL (≈ 127 µM); in experiment [2] it was 0.781 µg/mL (≈ 0.777 µM).

As for `CC[C@H]1OC(=O)C[C@@H](O)[C@H](C)[C@@H](O[C@@H]2O[C@H](C)[C@@H](O[C@H]3C[C@@](C)(O)[C@@H](O)[C@H](C)O3)[C@H](N(C)C)[C@H]2O)[C@@H](CCN2CCC[C@@H]2CO)C[C@@H](C)C(=O)/C=C/C(C)=C/[C@@H]1CO[C@@H]1O[C@H](C)[C@@H](O)[C@@H](OC)[C@H]1OC` [Ic, 20-((R)-2-hydroxymethyltetrahydropyrrolyl) tylosin], in experiment [1], the MIC was determined as 64 µg/mL (≈ 63.9 µM) and the “antibacterial effect compared with tylosin against Escherichia coli 8099” value is “superior antibacterial effect to tylosin”. Moreover, in experiment [2], 0.195 µg/mL (≈ 0.195 µM) was the least that counted as inhibitory (MIC) and the “antibacterial effect compared with tylosin against Streptococcus pneumoniae ATCC 49169” value is recorded as “superior antibacterial effect to tylosin”.

Turning to `CC[C@H]1OC(=O)C[C@@H](O)[C@H](C)[C@@H](O[C@@H]2O[C@H](C)[C@@H](O[C@H]3C[C@@](C)(O)[C@@H](O)[C@H](C)O3)[C@H](N(C)C)[C@H]2O)[C@@H](CCN2CCC[C@H]2CO)C[C@@H](C)C(=O)/C=C/C(C)=C/[C@@H]1CO[C@@H]1O[C@H](C)[C@@H](O)[C@@H](OC)[C@H]1OC` [Id, 20-((S)-2-hydroxymethyltetrahydropyrrolyl) tylosin], the MIC in experiment [1] was determined as 128 µg/mL (≈ 128 µM); in experiment [2], 0.781 µg/mL (≈ 0.78 µM).

Take `CC[C@H]1OC(=O)C[C@@H](O)[C@H](C)[C@@H](O[C@@H]2O[C@H](C)[C@@H](O[C@H]3C[C@@](C)(O)[C@@H](O)[C@H](C)O3)[C@H](N(C)C)[C@H]2O)[C@@H](CC=O)C[C@@H](C)C(=O)/C=C/C(C)=C/[C@@H]1CO[C@@H]1O[C@H](C)[C@@H](O)[C@@H](OC)[C@H]1OC` [Tylosin, reference compound]: the MIC was determined as 128 µg/mL (≈ 140 µM) in experiment [1] and 0.781 µg/mL (≈ 0.853 µM) in experiment [2].

Turning to `CC[C@H]1OC(=O)C[C@@H](O)[C@H](C)[C@@H](O[C@@H]2O[C@H](C)[C@@H](O[C@H]3C[C@@](C)(O)[C@@H](O)[C@H](C)O3)[C@H](N(C)C)[C@H]2O)[C@@H](CCNCCCO)C[C@@H](C)C(=O)/C=C/C(C)=C/[C@@H]1CO[C@@H]1O[C@H](C)[C@@H](O)[C@@H](OC)[C@H]1OC` [Ia, 20-(3-hydroxypropylamino) tylosin], in experiment [1], the MIC was 128 µg/mL (≈ 131 µM) and the “antibacterial effect compared with tylosin against Escherichia coli 8099” value is reported as “comparable antibacterial effect to tylosin”. Also, in experiment [2], the MIC is 0.391 µg/mL (≈ 0.401 µM) and the “antibacterial effect compared with tylosin against Streptococcus pneumoniae ATCC 49169” value is reported as “slightly better antibacterial effect than tylosin”.
